According to patent US9988635B2, “Modulation of growth hormone receptor expression and insulin-like growth factor expression” (Antisense Therapeutics Limited, priority 2003, dated 2018):
Where a name gives a salt, the structure may show the parent alone. In the oligonucleotide strings, read from the 5' end, every base follows the letter of its sugar. An asterisk marks phosphorothioate; unmarked linkages are phosphodiester. Other units and linkages are bracketed, terminal groups are in braces. A string of capitals states the bases alone. e = 2'-O-(2-methoxyethyl) (MOE); [5mC] = 5-methylcytosine; d = 2'-deoxy (DNA)

Legend:
[1] = test system: mouse growth hormone receptor mRNA; test: Inhibition of mouse growth hormone receptor mRNA levels in b.END cells, quantitative real-time PCR, incl. dose-response; type: cell-based; settings: averages from three experiments
Procedure: The mouse brain endothelial cell line b.END was obtained from Dr. Werner Risau at the Max Plank Instititute (Bad Nauheim, Germany). b.END cells were routinely cultured in DMEM, high glucose (Gibco/Life Technologies, Gaithersburg, Md.) supplemented with 10% fetal calf serum (Gibco/Life Technologies, Gaithersburg, Md.). Cells were routinely passaged by trypsinization and dilution when they reached 90% confluence. Cells were seeded into 96-well plates (Falcon-Primaria #3872) at a density of 3000 cells/well for use in RT-PCR analysis.
When cells reached 65-75% confluency, they were treated with oligonucleotide. For cells grown in 96-well plates, wells were washed once with 100 μL OPTI-MEM™-1 reduced-serum medium (Invitrogen Corporation, Carlsbad, Calif.) and then treated with 130 μL of OPTI-MEM™-1 containing 3.75 μg/mL LIPOFECTIN™ (Invitrogen Corporation, Carlsbad, Calif.) and the desired concentration of oligonucleotide. Cells are treated and data are obtained in triplicate. After 4-7 hours of treatment at 37° C., the medium was replaced with fresh medium. Cells were harvested 16-24 hours after oligonucleotide treatment.
Total RNA was isolated using an RNEASY 96™ kit and buffers purchased from Qiagen Inc. (Valencia, Calif.) following the manufacturer's recommended procedures. Briefly, for cells grown on 96-well plates, growth medium was removed from the cells and each well was washed with 200 μL cold PBS. 150 μL Buffer RLT was added to each well and the plate vigorously agitated for 20 seconds. 150 μL of 70% ethanol was then added to each well and the contents mixed by pipetting three times up and down. The samples were then transferred to the RNEASY 96™ well plate attached to a QIAVAC™ manifold fitted with a waste collection tray and attached to a vacuum source. Vacuum was applied for 1 minute. 500 μL of Buffer RW1 was added to each well of the RNEASY 96™ plate and incubated for 15 minutes and the vacuum was again applied for 1 minute. An additional 500 μL of Buffer RW1 was added to each well of the RNEASY 96™ plate and the vacuum was applied for 2 minutes. 1 mL of Buffer RPE was then added to each well of the RNEASY 96™ plate and the vacuum applied for a period of 90 seconds. The Buffer RPE wash was then repeated and the vacuum was applied for an additional 3 minutes. The plate was then removed from the QIAVAC™ manifold and blotted dry on paper towels. The plate was then re-attached to the QIAVAC™ manifold fitted with a collection tube rack containing 1.2 mL collection tubes. RNA was then eluted by pipetting 140 μL of RNAse free water into each well, incubating 1 minute, and then applying the vacuum for 3 minutes.
Quantitation of growth hormone receptor mRNA levels was accomplished by real-time quantitative PCR using the ABI PRISM™ 7600, 7700, or 7900 Sequence Detection System (PE-Applied Biosystems, Foster City, Calif.) according to manufacturer's instructions. This is a closed-tube, non-gel-based, fluorescence detection system which allows high-throughput quantitation of polymerase chain reaction (PCR) products in real-time. As opposed to standard PCR in which amplification products are quantitated after the PCR is completed, products in real-time quantitative PCR are quantitated as they accumulate. This is accomplished by including in the PCR reaction an oligonucleotide probe that anneals specifically between the forward and reverse PCR primers, and contains two fluorescent dyes. A reporter dye (e.g., FAM or JOE, obtained from either PE-Applied Biosystems, Foster City, Calif., Operon Technologies Inc., Alameda, Calif. or Integrated DNA Technologies Inc., Coralville, Iowa) is attached to the 5′ end of the probe and a quencher dye (e.g., TAMRA, obtained from either PE-Applied Biosystems, Foster City, Calif., Operon Technologies Inc., Alameda, Calif. or Integrated DNA Technologies Inc., Coralville, Iowa) is attached to the 3′ end of the probe. […]

[2] = Body weight, body length, organ weights and food intake, 1 week pilot study; type: in vivo, mouse; settings: octreotide group
Procedure: Saline, antisense, mismatch control and octreotide samples were prepared, and coded for blinding. Animals were given a subcutaneous dose of saline every second day, and mismatch control or antisense with administration on days 0, 2, 4, 6. Animals were given twice daily doses of 25 μg octreotide. Animals were housed 4 per cage, for the duration of one week. They had access to a pre-determined quantity of standard mouse food and water at all times throughout the experiment. They were housed in a quiet, temperature- and humidity-maintained environment for the entirety of the study. At day 0 and before treatment on each day or second day, the animals had their body weight and food intake measured, enabling the correct dose of agent to be administered. The animals were monitored closely for any changes in fur, skin, eye, locomotion or other changes in behavior. No problems were observed. Every second day from day −7 to day 7 body weight and food intake were measured.
The serum remaining following the insulin-like growth factor-1 assay was isolated and stored at −80° C. The whole liver was removed rapidly for weighing and snap-frozen in labelled aluminum parcels by submersion in liquid-nitrogen. […]
This confirms published results of others. […] Weight was measured in two ways: weight trend (live animal), and final carcass weight. […]

[3] = dosed orally; cited from earlier work
serum IGF-I = test: Serum IGF-I, 2 week study in mice; type: in vivo, mouse; settings: 30 mg/kg; 2 weeks
Procedure: A two-week study was done in similar fashion to the one-week study in Example 18, this time using ISIS 227446 at doses of 3, 5, 10, 20 and 30 mg/kg. The mismatch control was given at the same doses. Mice were treated with antisense compound or saline every other day for 14 days.
P-values were determined by t-test.

Row | Compound | % INHIB of mouse growth hormone receptor mRNA levels [1] | further results
1 | 227512 (antisense eT*eA*eA*e[5mC]*e[5mC]*dT*dA*dT*dG*dG*dT*dG*dA*d[5mC]*dT*eA*eT*eG*eT*e[5mC]) [compound 227512] | 36% | 
2 | 227513 (antisense eT*eA*e[5mC]*e[5mC]*eT*dG*dA*dG*dA*d[5mC]*d[5mC]*dT*dG*d[5mC]*dA*eA*eG*eA*e[5mC]*eA) [compound 227513] | 40% | 
3 | 227514 (antisense eA*eT*eG*e[5mC]*eT*d[5mC]*dA*d[5mC]*dG*dT*d[5mC]*dA*dG*d[5mC]*dT*eA*eT*eT*eG*eG) [compound 227514] | 43% | 
4 | 227515 (antisense eA*eA*eA*eT*eT*d[5mC]*dT*dT*dA*d[5mC]*dT*dT*dG*dT*d[5mC]*e[5mC]*e[5mC]*e[5mC]*eA*eG) [compound 227515] | 37% | 
5 | 227516 (antisense eT*eT*eG*eG*e[5mC]*dT*dT*dT*d[5mC]*d[5mC]*d[5mC]*dT*dG*dG*dA*eG*eG*eT*eT*e[5mC]) [compound 227516] | 57% | 
6 | 227517 (antisense e[5mC]*eT*eT*e[5mC]*eA*d[5mC]*dT*dA*dA*d[5mC]*d[5mC]*dT*dT*dG*d[5mC]*eA*eG*e[5mC]*eT*eT) [compound 227517] | 63% | 
7 | 227518 (antisense e[5mC]*eA*e[5mC]*eG*eG*d[5mC]*dT*dT*dA*d[5mC]*d[5mC]*dT*dA*dT*dT*eT*e[5mC]*eG*eT*e[5mC]) [compound 227518] | 6% | 
8 | 227519 (antisense eT*e[5mC]*eA*e[5mC]*eA*d[5mC]*d[5mC]*dT*dA*d[5mC]*d[5mC]*dT*dT*dT*dG*e[5mC]*eT*eG*e[5mC]*eT) [compound 227519] | 44% | 
9 | 227520 (antisense e[5mC]*eA*eT*e[5mC]*eT*dT*dA*dA*dT*d[5mC]*d[5mC]*dT*dT*dG*dG*eA*eA*eA*e[5mC]*eA) [compound 227520] | 42% | 
10 | C[C@@H](O)[C@@H]1NC(=O)[C@H](CCCCN)NC(=O)[C@@H](Cc2c[nH]c3ccccc23)NC(=O)[C@H](Cc2ccccc2)NC(=O)[C@@H](NC(=O)[C@H](N)Cc2ccccc2)CSSC[C@@H](C(=O)N[C@H](CO)[C@@H](C)O)NC1=O [Octreotide, octreotide, reference compound] |  | liver weight (g/total body weight) [2]: slight increase
11 | CC(C)C[C@H]1C(=O)N2CCC[C@H]2[C@]2(O)O[C@](NC(=O)[C@@H]3C=C4c5cccc6[nH]c(Br)c(c56)C[C@H]4N(C)C3)(C(C)C)C(=O)N12 [bromocriptine mesylate] |  | reduce growth hormone production and associated IGF-I sufficiently, % of cases [3]: 10%
12 | C=CCN1C[C@H](C(=O)N(CCCN(C)C)C(=O)NCC)C[C@@H]2c3cccc4[nH]cc(c34)C[C@H]21 [cabergoline] |  | reduce growth hormone production and associated IGF-I sufficiently, % of cases [3]: 10%
13 | TTACCGTATGGTTCCTCACT (chemistry not given here) [ISIS 260120, unrelated negative control oligonucleotide, reference compound] |  | effect on serum IGF-I at 30 mg/kg as observed with the mismatch oligonucleotide (serum IGF-I): not observed
